According to patent publication US8394442B2, “Process for the preparation of a flavoring concentrate, and a flavoring concentrate” (SYMRISE AG, priority 2007, dated 2013):
Read-outs that look alike come from different tables or passages of the source.

Experiments:
[1] = log Pow* calculated by Formula 2 from log Pow and the polarity parameter P′(x) of the ethanol/water mixture
[2] = log Pow: distribution coefficient between 1-octanol and water; settings: 1-octanol/water
Excerpt: Log Pow*=log Pow*−x*P′(x)/log Pow Formula 2: • where log Pow is the decimal logarithm of the distribution coefficient of a substance between 1-octanol and water, • x is the resulting solvent proportion based on the total volume proportion, normalized as 1.0, and • P′(x) is the polarity parameter for the corresponding solvent for the solvent proportion x.

[3] = solvent ethanol, proportion 10%
[4] = solvent ethanol, proportion 30%
[5] = solvent ethanol, proportion 40%
[6] = solvent ethanol, proportion 50%
[7] = solvent ethanol, proportion 60%
[8] = solvent ethanol, proportion 70%
[9] = solvent ethanol, proportion 80%
[10] = solvent ethanol, proportion 90%
[11] = solvent ethanol, proportion 100%

log Pow* (P′ 2%) ([1]; solvent ethanol, proportion 2%) | log Pow* (P′ 4%) ([1]; solvent ethanol, proportion 4%) | log Pow* (P′ 6%) ([1]; solvent ethanol, proportion 6%) | log Pow* (P′ 8%) ([1]; solvent ethanol, proportion 8%) | log Pow* (P′ 10%) [1, 3] | log Pow* (P′ 30%) [1, 4] | log Pow* (P′ 40%) [1, 5] | log Pow* (P′ 50%) [1, 6] | log Pow* (P′ 60%) [1, 7] | log Pow* (P′ 70%) [1, 8] | log Pow* (P′ 80%) [1, 9] | log Pow* (P′ 90%) [1, 10] | log Pow* (P′ 100%) [1, 11] | log Pow [2] | log Pow* (P′ 4%) [1] | log Pow* (P′ 6%) [1] | log Pow* (P′ 8%) [1] | log Pow* (P′ 10%) [1] | log Pow* (P′ 30%) [1] | log Pow* (P′ 40%) [1] | Compound | also measured
4.05 | 4.01 | 3.96 | 3.92 | 3.88 | 3.57 | 3.46 | 3.36 | 3.28 | 3.21 | 3.15 | 3.10 | 3.05 | 4.10 |  |  |  |  |  |  | C=C(C)[C@@H]1CCC2=CC(=O)C[C@@H](C)[C@]2(C)C1 [Nootkatone] | 
 |  |  |  |  |  |  |  |  |  |  |  |  | 2.12 | 1.94 | 1.85 | 1.77 | 1.70 | 1.10 | 0.88 | CC/C=C\CC1C(=O)CCC1CC(=O)OC (centres unmarked) [Methyl jasmonate] | log Pow* (P′ 2%) [1]: 2.03; log Pow* (P′ 50%) [1]: 0.69; log Pow* (P′ 60%) [1]: 0.54; log Pow* (P′ 70%) [1]: 0.40; log Pow* (P′ 80%) [1]: 0.29; log Pow* (P′ 90%) [1]: 0.18; log Pow* (P′ 100%) [1]: 0.09
 |  |  |  |  |  |  |  |  |  |  |  |  |  | 1.77 | 1.68 | 1.60 | 1.51 | 0.87 | 0.63 | CCCCCC=O [Hexanal] | log Pow* (P′ 50%) [1]: 0.43; log Pow* (P′ 60%) [1]: 0.27; log Pow* (P′ 70%) [1]: 0.12; log Pow* (P′ 80%) [1]: 0.00; log Pow* (P′ 90%) [1]: −0.12; log Pow* (P′ 100%) [1]: −0.21
3.99 | 3.94 | 3.90 | 3.86 | 3.82 | 3.50 | 3.39 | 3.29 | 3.21 | 3.14 | 3.08 | 3.02 | 2.98 | 4.04 |  |  |  |  |  |  | CC1=CCC(C(C)(C)S)CC1 (centres unmarked) [p-menthenethiol-1,8] | 
4.35 | 4.31 | 4.27 | 4.23 | 4.20 | 3.91 | 3.80 | 3.71 | 3.64 | 3.57 | 3.52 | 3.47 | 3.42 | 4.40 |  |  |  |  |  |  | C/C=C/C(=O)C1=C(C)C=CCC1(C)C [beta-damascenone] | 
 |  |  |  |  |  |  |  |  |  |  |  |  | 3.28 | 3.16 | 3.11 | 3.06 | 3.01 | 2.62 | 2.48 | C=CC(C)(O)CCC=C(C)C (centres unmarked) [Linalool] | log Pow* (P′ 2%) [1]: 3.22; log Pow* (P′ 50%) [1]: 2.36; log Pow* (P′ 60%) [1]: 2.26; log Pow* (P′ 70%) [1]: 2.17; log Pow* (P′ 80%) [1]: 2.09; log Pow* (P′ 90%) [1]: 2.03; log Pow* (P′ 100%) [1]: 1.97
2.39 | 2.31 | 2.24 | 2.17 | 2.11 | 1.59 | 1.40 | 1.25 | 1.11 | 1.00 | 0.90 | 0.81 | 0.73 | 2.47 |  |  |  |  |  |  | CC/C=C\CC1CCCC(=O)O1 (centres unmarked) [Jasmine lactone] | 
3.80 | 3.75 | 3.70 | 3.66 | 3.62 | 3.29 | 3.17 | 3.06 | 2.98 | 2.90 | 2.84 | 2.78 | 2.73 | 3.85 |  |  |  |  |  |  | CC(=O)/C=C/C1=C(C)CCCC1(C)C [beta-ionone] | 
 |  |  |  |  |  |  |  |  |  |  |  |  |  | 2.32 | 2.25 | 2.18 | 2.12 | 1.61 | 1.42 | C=Cc1ccc(O)c(OC)c1 | log Pow* (P′ 2%) [1]: 2.40; log Pow* (P′ 50%) [1]: 1.26; log Pow* (P′ 60%) [1]: 1.13; log Pow* (P′ 70%) [1]: 1.01; log Pow* (P′ 80%) [1]: 0.91; log Pow* (P′ 90%) [1]: 0.82; log Pow* (P′ 100%) [1]: 0.75
 |  |  |  |  |  |  |  |  |  |  |  |  |  | 2.69 | 2.63 | 2.57 | 2.51 | 2.06 | 1.90 | CCCCCCOC(C)=O [Hexylacetate] | log Pow* (P′ 2%) [1]: 2.76; log Pow* (P′ 50%) [1]: 1.76; log Pow* (P′ 60%) [1]: 1.64; log Pow* (P′ 70%) [1]: 1.54; log Pow* (P′ 80%) [1]: 1.46; log Pow* (P′ 90%) [1]: 1.38; log Pow* (P′ 100%) [1]: 1.31

Compound | log Pow* (P′ 2%) ([1]; solvent ethanol, proportion 2%) | log Pow* (P′ 4%) ([1]; solvent ethanol, proportion 4%) | log Pow* (P′ 6%) ([1]; solvent ethanol, proportion 6%) | log Pow* (P′ 8%) ([1]; solvent ethanol, proportion 8%) | log Pow* (P′ 10%) [1, 3] | log Pow* (P′ 30%) [1, 4] | log Pow* (P′ 40%) [1, 5] | log Pow* (P′ 50%) [1, 6] | log Pow* (P′ 60%) [1, 7] | log Pow* (P′ 70%) [1, 8] | log Pow* (P′ 80%) [1, 9] | log Pow* (P′ 90%) [1, 10] | log Pow* (P′ 100%) [1, 11] | log Pow [2] | log Pow* (P′ 4%) [1] | log Pow* (P′ 6%) [1] | log Pow* (P′ 8%) [1] | log Pow* (P′ 10%) [1] | log Pow* (P′ 30%) [1] | log Pow* (P′ 40%) [1] | also measured
Oc1ccccc1 [Phenol] | 1.35 | 1.22 | 1.10 | 0.98 | 0.87 | 0.02 | −0.30 | −0.56 | −0.79 | −0.98 | −1.15 | −1.30 | −1.43 |  |  |  |  |  |  |  | 
OCc1ccco1 [Furfuryl alcohol] | −0.43 | −1.10 | −1.74 | −2.35 | −2.92 | −7.46 | −9.13 | −10.52 | −11.71 | −12.73 | −13.61 | −14.39 | −15.08 |  |  |  |  |  |  |  | 
O=Cc1ccco1 [Furfural] | 0.46 | 0.20 | −0.04 | −0.28 | −0.50 | −2.24 | −2.88 | −3.41 | −3.87 | −4.26 | −4.60 | −4.90 | −5.16 |  |  |  |  |  |  |  | 
O=Cc1ccccc1 [Benzaldehyde] | 1.52 | 1.40 | 1.30 | 1.19 | 1.09 | 0.32 | 0.03 | −0.20 | −0.41 | −0.58 | −0.73 | −0.86 | −0.98 |  |  |  |  |  |  |  | 
